According to article PMC7085114 (Biochemistry, 2020):
“Also recorded” adds a separate entry of the source. Where two headings read alike, the source gives them in different places. Values belong to the compound of their own block, whether it stands above or below them.

Experiments:
SARM1 TIR domain [1] = biological target: T1, SARM1 TIR domain (Homo sapiens, UniProt Q6SZW1); assay: Continuous fluorescent ENAD hydrolysis assay, SARM1 TIR domain in lysate; assay type: biochemical; conditions: for Inhibition of SARM1 (in words): 0 – 1 mM analog, ENAD 50 μM
T1 sequence (Q6SZW1 561-724): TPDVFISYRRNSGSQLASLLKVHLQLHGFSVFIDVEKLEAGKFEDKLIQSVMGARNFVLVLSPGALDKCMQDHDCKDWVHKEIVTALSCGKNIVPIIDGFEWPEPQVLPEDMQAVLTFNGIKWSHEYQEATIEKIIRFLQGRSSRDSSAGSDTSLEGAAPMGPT

SARM1 SAM^1–2TIR domains = biological target: T2, SARM1 SAM^1–2TIR domains (Homo sapiens, UniProt Q6SZW1); conditions: SAM TIR construct, substrate ENAD
T2 sequence (Q6SZW1 412-724): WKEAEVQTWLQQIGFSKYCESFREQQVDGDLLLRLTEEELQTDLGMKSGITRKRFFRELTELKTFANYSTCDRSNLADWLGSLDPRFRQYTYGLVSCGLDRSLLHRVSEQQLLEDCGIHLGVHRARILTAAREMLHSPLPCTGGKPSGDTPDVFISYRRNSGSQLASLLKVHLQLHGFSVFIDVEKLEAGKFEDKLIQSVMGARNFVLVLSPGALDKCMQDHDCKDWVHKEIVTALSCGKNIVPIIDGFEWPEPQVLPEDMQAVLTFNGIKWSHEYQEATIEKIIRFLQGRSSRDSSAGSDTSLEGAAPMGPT

full length SARM1 = biological target: T3, full length SARM1 (Homo sapiens, UniProt Q6SZW1); conditions: Full length SARM1, substrate ENAD
T3 sequence (Q6SZW1 28-724): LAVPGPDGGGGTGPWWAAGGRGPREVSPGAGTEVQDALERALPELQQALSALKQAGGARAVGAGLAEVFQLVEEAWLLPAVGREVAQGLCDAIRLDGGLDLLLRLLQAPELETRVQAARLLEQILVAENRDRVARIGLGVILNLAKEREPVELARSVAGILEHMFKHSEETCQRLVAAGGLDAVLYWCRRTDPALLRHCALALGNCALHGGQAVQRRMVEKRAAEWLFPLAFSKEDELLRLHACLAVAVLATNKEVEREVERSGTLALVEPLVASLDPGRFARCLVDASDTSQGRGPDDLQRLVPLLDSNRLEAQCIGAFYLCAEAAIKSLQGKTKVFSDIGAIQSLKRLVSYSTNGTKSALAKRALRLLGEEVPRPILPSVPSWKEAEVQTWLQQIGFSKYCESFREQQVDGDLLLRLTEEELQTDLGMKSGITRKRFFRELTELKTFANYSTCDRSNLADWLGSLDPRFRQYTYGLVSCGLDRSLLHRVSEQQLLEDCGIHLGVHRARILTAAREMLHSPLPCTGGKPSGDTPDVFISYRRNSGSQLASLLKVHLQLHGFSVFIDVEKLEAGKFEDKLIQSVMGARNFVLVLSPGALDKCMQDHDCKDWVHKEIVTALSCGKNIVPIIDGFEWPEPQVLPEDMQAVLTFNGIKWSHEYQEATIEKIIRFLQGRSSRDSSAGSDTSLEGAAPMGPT

SARM1 TIR domain [2] = biological target: T1, SARM1 TIR domain; assay: Luminescent NNMT-coupled NAD+ hydrolysis assay; assay type: biochemical; conditions: TIR domain on affinity beads, substrate NAD^+
Sir2 = conditions: ref [24]–[27]; cited from earlier work
CD38 = conditions: cited from earlier work
[3] = 2 mM metal or EDTA, 300 nM SARM1, 200 μM ENAD
[4] = 300 nM SARM1, ENAD 0 – 400 μM varied

SMILES: O[C@@H](CS)[C@@H](O)CS (racemic) [DTT, dithiothreitrol]
Effect of reducing agents on SARM1 activity (SARM1 TIR domain [1]; 0 – 2 mM reducing agent, 100 μM ENAD): Neither DTT nor TCEP altered SARM1 activity

SMILES: Nc1ncnc2c1ncn2[C@@H]1O[C@H](COP(=O)(O)OP(=O)(O)OC[C@H]2OC(O)[C@H](O)[C@@H]2O)[C@@H](O)[C@H]1O (stereo partly shown) [ADPR, ADP Ribose]
Ki (SARM1 TIR domain [1]; [4]): 90 ± 10 µM | Pattern (mechanism) of inhibition (SARM1 TIR domain [1]; [4]): competitive; also recorded: competitively

SMILES: NC(=O)c1ccc[n+]([C@@H]2O[C@H](COP(=O)([O-])OP(=O)(O)OC[C@H]3O[C@@H](n4cnc5c4ncn4ccnc54)[C@H](O)[C@@H]3O)[C@@H](O)[C@H]2O)c1 [ENAD, Nicotinamide 1, N^6–ethenoadenine dinucleotide]
Km (SARM1 SAM^1–2TIR domains): 130 ± 20 µM | kcat (SARM1 SAM^1–2TIR domains): 0.12 ± 0.02 s⁻¹ | Km (full length SARM1): 70 ± 20 µM | kcat (full length SARM1): 0.40 ± 0.04 s⁻¹ | Km (SARM1 TIR domain [1]): 35 ± 10 µM | kcat (SARM1 TIR domain [1]; TIR domain, substrate ENAD, fluorescent assay): 0.06 ± 0.03 s⁻¹

SMILES: [Cl-].[Cl-].[Zn+2] [Zn^2+, ZnCl2]
Effect of divalent metal ions and EDTA on SARM1 catalysis (SARM1 TIR domain [1]; [3]): inhibit SARM1

SMILES: [Cl][Cd][Cl] [CdCl2]
Effect of divalent metal ions and EDTA on SARM1 catalysis (SARM1 TIR domain [1]): only Ni^2+ and Zn^2+ inhibit SARM1

SMILES: NC(=O)c1cccnc1 [nicotinamide]
Pattern of inhibition (Sir2): noncompetitive | Ki (CD38; ref [23]): 7100 µM | Pattern of inhibition (CD38; ref [24]–[27]): mixed inhibition

SMILES: [Cl-].[Cl-].[Co+2] [CoCl2]
Effect of divalent metal ions and EDTA on SARM1 catalysis (SARM1 TIR domain [1]): only Ni^2+ and Zn^2+ inhibit SARM1

SMILES: O=C(O)CCP(CCC(=O)O)CCC(=O)O [TCEP, tris(2–carboxyethyl)phosphine]
Effect of reducing agents on SARM1 activity (SARM1 TIR domain [1]): Neither DTT nor TCEP altered SARM1 activity

SMILES: [Cl][Ni][Cl] [Ni^2+, NiCl2]
Effect of divalent metal ions and EDTA on SARM1 catalysis (SARM1 TIR domain [1]): inhibit SARM1 | IC50 (SARM1 TIR domain [1]; read-out: IC50 of metal ion inhibition of SARM1): 600 ± 100 µM

Further lines, results first:

Inhibition of SARM1 (in words) (SARM1 TIR domain [1]): inhibit SARM1
SMILES: NC(=O)c1ccc(Cl)nc1 [6-CN, 6–chloronicotinamide]

Effect of divalent metal ions and EDTA on SARM1 catalysis (SARM1 TIR domain [1]; [3]): only Ni^2+ and Zn^2+ inhibit SARM1
SMILES: [Cl][Cu][Cl] [CuCl2]

Effect of divalent metal ions and EDTA on SARM1 catalysis (SARM1 TIR domain [1]; [3]): only Ni^2+ and Zn^2+ inhibit SARM1
SMILES: [Cl-].[Cl-].[Mg+2] [MgCl2]

Effect of divalent metal ions and EDTA on SARM1 catalysis (SARM1 TIR domain [1]; [3]): only Ni^2+ and Zn^2+ inhibit SARM1
SMILES: [Ca+2].[Cl-].[Cl-] [CaCl2]

Km (SARM1 TIR domain [2]): 28 ± 6 µM | kcat (SARM1 TIR domain [2]): 0.21 ± 0.03 s⁻¹
SMILES: NC(=O)c1ccc[n+]([C@@H]2O[C@H](COP(=O)([O-])OP(=O)(O)OC[C@H]3O[C@@H](n4cnc5c(N)ncnc54)[C@H](O)[C@@H]3O)[C@@H](O)[C@H]2O)c1 [NAD^+]

Effect of divalent metal ions and EDTA on SARM1 catalysis (SARM1 TIR domain [1]; [3]): lack of an effect
SMILES: O=C(O)CN(CCN(CC(=O)O)CC(=O)O)CC(=O)O [EDTA, ethylenediaminetetraacetic acid]

Effect of divalent metal ions and EDTA on SARM1 catalysis (SARM1 TIR domain [1]; [3]): only Ni^2+ and Zn^2+ inhibit SARM1
SMILES: [Cl][Mn][Cl] [MnCl2]

IC50 (SARM1 TIR domain [1]): 640 ± 40 µM | Ki (SARM1 TIR domain [1]): 700 ± 30 µM | Inhibition of SARM1 (in words) (SARM1 TIR domain [1]): inhibit SARM1 | Pattern (mechanism) of inhibition (SARM1 TIR domain [1]; [4]): noncompetitive | Pattern (mechanism) of inhibition (SARM1 TIR domain [1]; 300 nM SARM1, ENAD 0 – 400 μM varied, listed as 4-Chloronicotinamide): noncompetitively
SMILES: NC(=O)c1cnccc1Cl [4–CN, 4–chloronicotinamide]
